In patent publication US9784746B2, “Method for studying transport of an agent across a bilayer membrane in bioanalytical sensor applications” (Bio-Rad Laboratories, Inc., priority 2008, dated 2017):
One block for each compound: values may come before it.

Legend:
[1] = Cyclodextrin removal of cholesterol from liposome bilayer (SPR); settings: after seven injections; start 40% cholesterol
Source text: (§1) 70 nm liposomes containing 40% cholesterol were provided in accordance with Example 1. Binding of the liposomes followed by repeated injection cyclodextrin, which removes cholesterol from the lipid bilyaer of the liposomes is shown in FIG. 6a. The SPR response is proportional to the interfacial refractive index, which makes it possible to quantify the removal of cholesterol. After seven injections of cyclodextrin, the cholesterol content was reduced to 14%.

[2] = Glycerol transport across liposome membrane versus cholesterol content (SPR); format: physicochemical
Method: At first 70 nm liposomes were provided in accordance with Example 1. […] Also shown in FIG. 4b (dashed curve) is an identical rinsing step without immobilized liposomes, illustrating that the time constant of the fluidic exchange is faster than 100 ms, which is sufficient to temporally resolve these transport measurements. The rate of glycerol release was examined in a temperature interval from 8 to 22° C. […] In agreement with expectations, the rate of transport across the lipid membrane increases with increasing temperature, and Arrhenius plots display a linear dependence between ln(1/) and 1/T, yielding activation energies in excellent agreement with literature data for the three solutes (glycerol, urea and hydroxyurea) investigated, see FIG. 5b.
as §1, with “After seven injections of cyclodextrin, the cholesterol content was reduced to 14%.” left out
Each injection of cyclodextrin (FIG. 6a) was followed by an injection pulse of glycerol, which enabled the time constant of glycerol transport versus cholesterol content to be quantified, ranging from around 7 s at 40% cholesterol to 1 s at 14% cholesterol, see FIG. 6b. […]

[3] = Membrane transport of ions across gramicidin-containing liposomes (SPR); format: physicochemical; settings: gramicidin incorporated for K+ co-transport; FIG. 7
Source text: Information of this type is of high relevance in studies on how, for example, drugs influence the permeability of cell-membranes. Both passive and membrane-protein mediated transfer of uncharged solutes is of high biological and pharmaceutical relevance. However, for a method like this to be generically applicable for any type of membrane transport reaction, also ion translocation should be possible to measure, which is today typically measured using patch-clamp based assays. FIG. 7 illustrates membrane transport of iodide (˜10 s) and chloride (˜200 s) ions, in excellent agreement with literature data. Note that gramicidin was incorporated into the liposomes in order to ensure co-transport of counter ions (K+), thus prohibiting the establishment of an electrostatic transmembrane potential that would otherwise restrict the unhindered transport of anions.

[4] = Melittin binding to tethered POPC liposomes (Biacore SPR)
Method: Liposomes were made by first evaporating the solvent, chloroform, from the POPC lipids using a flow of nitrogen gas. The dried lipids were then kept under the flow of nitrogen gas for at least one hour after which HEPES-2 was added to yield a 4 mg/ml concentration of POPC. The dissolved POPC lipids were vortexed for at least 30 min to yield multi-laminar liposomes. Uni-laminar liposomes were produced using a mini extruder and polycarbonate membranes with pore size of 50 nm from Avanti Polar Lipids® with a 50 nm pore size. […] The liposomes were stored under nitrogen gas at 4° C. until use (within 2 days).
A mixture (300 μl) of HS-PEG (200 μg/ml) and HS-PEG-Biotin (20 μg/ml), dissolved in HEPES-2, were injected over the Biacore® Au sensor chip at a flow rate of 5 μl/min. Then a mixture (150 μl) of NeutrAvidin (40 μg/ml) and Biotin-DNA (0.7 μM) was injected and bound to HS-PEG-Biotin at the surface.
POPC liposomes (2 mg/ml, in HEPES-2) containing cholesterol-DNA tags (3 DNA tags per liposome) were injected at a flow rate of 5 μl/min. The end of the DNA-part of the cholesterol-DNA tag is single-stranded and complementary in sequence to the Biotin-DNA at the surface enabling tethering of the liposomes to the sensor surface.
The reversible binding of melittin was measured in the Biacore® instrument directly after the tethering of POPC liposomes was finished. Melittin solutions at a concentration of 0.5-40 μM in HEPES-2 were injected in sequence. During injection the melittin molecules bind to the liposomes and after the injection is terminated, running buffer (HEPES-2) flows over the surface and melittin dissociates. After the dissociation was complete a new melittin solution of different concentration was injected.
Melittin solutions of various concentrations (0.5-40 μM) were injected over the bound liposomes in the Biacore® instrument at 5 μl/min. The change in response (RU) as a function of time (t) was fitted to RU=RU0+RU1*(1−exp(−t/τ1))+RU2*(1−exp(−t/τ2)). However, the change in RU during the injection of 0.5 μM melittin could be described using only one exponential (i.e. RU2=0). It is known that high concentrations of melittin can rupture cells and liposomes. Unspecific binding (i.e. binding to the biosensor surface without liposomes) of melittin was small, less than 5% of the binding of melittin to the liposome membrane surface (data not shown).

[5] = Melittin pore mediated sucrose uptake into tethered liposomes (SPR refractive index); format: physicochemical
Method: After tethering of NeutrAvidin/Biotin-DNA the following injections were made in sequential order; 0.1 M sucrose, 2 mg/ml cholesterol-DNA tagged POPC-liposomes, 0.1 M sucrose, 40 μM melittin, 0.1 M sucrose, 0.1 M sucrose, 0.1 M sucrose. All samples were dissolved in HEPES-2.
A simple method for real-time and label-free uptake measurements of analytes across membranes at a biosensor surface would be of great value when investigating for example membrane transporters. Here we wanted to test if it was possible to measure the uptake of an analyte, sucrose, through the melittin pore by simply detecting the change in refractive index of the solution inside the liposome caused by the analyte as it is taken up.
Adding sucrose changes the refractive index of the solution in the detection volume, i.e. the volume corresponding to the evanescent field above the sensor surface, which is manifested as a shift in RU. […]
The amplitude of the uptake decrease from S3 to S5, which is explained by a decreasing number of liposomes having pores. […] The expected RU of the 7400 sucrose molecules (0.1 M) inside the liposome can be calculated from the obtained response of immobilizing the liposome itself (RU=6790). […] Since only ˜85% of the liposomes have pores the expected value is 480/0.85≈560 RU, which is in good agreement with the measured response of 530 RU from the S3 injection.

[6] = outer membrane, fast phase, fit of k1 vs [Mel]B, 0.5-40 μM, HEPES-2

Compound: cyclodextrin
- cholesterol content of liposomes after cyclodextrin [1]: 14%

- time constant of glycerol transport ([2]; 14% cholesterol): ~1 s
- time constant of glycerol transport ([2]; 40% cholesterol): around 7 s
Compound: OCC(O)CO [glycerol]

- membrane transport time [3]: ~10 s
Compound: I [iodide]

Compound: CC[C@H](C)[C@H](NC(=O)CN)C(=O)NCC(=O)N[C@@H](C)C(=O)N[C@H](C(=O)N[C@@H](CC(C)C)C(=O)N[C@@H](CCCCN)C(=O)N[C@H](C(=O)N[C@@H](CC(C)C)C(=O)N[C@H](C(=O)N[C@H](C(=O)NCC(=O)N[C@@H](CC(C)C)C(=O)N1CCC[C@H]1C(=O)N[C@@H](C)C(=O)N[C@@H](CC(C)C)C(=O)N[C@H](C(=O)N[C@@H](CO)C(=O)N[C@@H](Cc1c[nH]c2ccccc12)C(=O)N[C@H](C(=O)N[C@@H](CCCCN)C(=O)N[C@@H](CCCNC(=N)N)C(=O)N[C@@H](CCCCN)C(=O)N[C@@H](CCCNC(=N)N)C(=O)N[C@@H](CCC(N)=O)C(=O)N[C@@H](CCC(N)=O)C(N)=O)[C@@H](C)CC)[C@@H](C)CC)[C@@H](C)O)[C@@H](C)O)C(C)C)C(C)C [melittin]
- k+2 (apparent, slower kinetic phase, binding to inner membrane) ([4]; linear fit of k2 vs [Mel]B): 56 M⁻¹ s⁻¹
- k−2 (slower kinetic phase, binding to inner membrane) ([4]; linear fit of k2 vs [Mel]B): 0.0046 s⁻¹
- microscopic off-rate k−1 of melittin with the liposome membrane surface [4, 6]: 0.032 s⁻¹
- microscopic on-rate k+1 of melittin with the liposome membrane surface [4, 6]: 3684 M⁻¹ s⁻¹

Compound: OC[C@H]1O[C@@](CO)(O[C@H]2O[C@H](CO)[C@@H](O)[C@H](O)[C@H]2O)[C@@H](O)[C@@H]1O [sucrose]
- decay time for uptake of sucrose τ3 ([5]; 0.1 M sucrose after 40 μM melittin (S3), estimated from FIG. 3): ≈ 20 sec
- number of sucrose molecules that cross the membrane per liposome ([5]; in ˜20 sec, inside concentration 0.1 M): ~7400

Compound: Cl [chloride]
- membrane transport time [3]: ~200 s
